Test results reported in US20250171498A1, “ANTIBIOTIC COMPOUNDS, FORMULATIONS AND METHODS OF USE” (UNIVERSITEIT LEIDEN, priority 2022, published 2025).
In brackets after ≈: the same amount, converted by molar mass. Where two headings read alike, the source gives them in different places. Where a SMILES comes first, the peptide text is derived from it. Bridges are numbered along the chain shown (N, C = ends). [ ]: non-standard residue; d: D form. The star is where a group is joined. S(2-cyclohexylethyl) = C1CCC(CCS*)CC1; S(3-Cl-benzyl) = Clc1cccc(CS*)c1; S(3-Methylbutyl) = CC(C)CCS*; dDab = NCC[C@@H](N)C(=O)O; dDap = NC[C@@H](N)C(=O)O; Dab = NCC[C@H](N)C(=O)O; Dap = NC[C@H](N)C(=O)O

Experiments:
Format in all cases: cell-based
A. Baumanni (ATCC 19606) = test system: A. Baumanni (ATCC 19606)
Description: (§1) Compounds were prepared according to scheme 2, 3, 4, 6, 7, or 8 above, preparing different sets of compounds with different substitution patterns. All polymyxin analogues prepared were tested for their anti-bacterial activity on relevant Gram-negative strains (Table B). Polymyxin B and PMBN were taken along as references. In addition, the toxicity on renal Proximal Tubular Epithelial Cells (PTECs) was evaluated.
(§2) 3rd Generation compounds were also subjected to testing for their anti-bacterial activity on relevant Gram-negative strains (Table C). Polymyxin B and PMBN were taken along as references. In addition, the toxicity on renal Proximal Tubular Epithelial Cells (PTECs) was evaluated, see Table C.

E. Coli (ATCC 25922) = test system: E. Coli (ATCC 25922)
Description: as §1, §2

[1] = test system: K. Pneumoniae (ATCC 13883)
Description: as §1, §2

[2] = test system: P. Aeruginosa (ATCC 27853)
Description: as §1, §2

[3] = test system: renal Proximal Tubular Epithelial Cells (PTECs); assay: Toxicity on renal Proximal Tubular Epithelial Cells
Description: as §1, §2

MIC A. Baumanni (ATCC 19606) (A. Baumanni (ATCC 19606); ATCC 19606) [µg/mL]	MIC E. Coli (ATCC 25922) (E. Coli (ATCC 25922); ATCC 25922) [µg/mL]	MIC K. Pneumoniae (ATCC 13883) ([1]; ATCC 13883) [µg/mL]	MIC P. Aeruginosa (ATCC 27853) ([2]; ATCC 27853) [µg/mL]	MIC A. Baumanni (ATCC 19606) (A. Baumanni (ATCC 19606); strain ATCC 19606) [µg/mL]	MIC E. Coli (ATCC 25922) (E. Coli (ATCC 25922); strain ATCC 25922) [µg/mL]	MIC K. Pneumoniae (ATCC 13883) ([1]; strain ATCC 13883) [µg/mL]	MIC P. Aeruginosa (ATCC 27853) ([2]; strain ATCC 27853) [µg/mL]	Compound	PTEC Toxicity (relative to polymyxin B) [3]	PTEC Toxicity (relative to polymyxin B) ([3]; relative value, polymyxin B = 1)
0.5 (≈ 0.419 µM)	2 (≈ 1.67 µM)	1 (≈ 0.837 µM)	2 (≈ 1.67 µM)	–	–	–	–	CC(C)C[C@@H]1NC(=O)[C@@H](Cc2ccccc2)NC(=O)[C@H](CCN)NC(=O)[C@@H](NC(=O)[C@@H](CN)NC(=O)[C@@H](NC(=O)[C@H](N)CSSCCC2CCCCC2)[C@@H](C)O)CCNC(=O)[C@H]([C@@H](C)O)NC(=O)[C@H](CCN)NC(=O)[C@H](CCN)NC1=O (H-[dC](S(2-cyclohexylethyl))T[dDap][Dab][Dab][dF]L[Dab][Dab]T; lactam 4-C)	5.4	–
0.25 (≈ 0.209 µM)	2 (≈ 1.67 µM)	1 (≈ 0.836 µM)	4 (≈ 3.35 µM)	–	–	–	–	CC(C)C[C@@H]1NC(=O)[C@@H](Cc2ccccc2)NC(=O)[C@H](CCN)NC(=O)[C@@H](NC(=O)[C@@H](CO)NC(=O)[C@@H](NC(=O)[C@H](N)CSSCCC2CCCCC2)[C@@H](C)O)CCNC(=O)[C@H]([C@@H](C)O)NC(=O)[C@H](CCN)NC(=O)[C@H](CCN)NC1=O (H-[dC](S(2-cyclohexylethyl))T[dS][Dab][Dab][dF]L[Dab][Dab]T; lactam 4-C)	3.3	–
1 (≈ 0.848 µM)	2 (≈ 1.7 µM)	1 (≈ 0.848 µM)	4 (≈ 3.39 µM)	–	–	–	–	CC(C)C[C@@H]1NC(=O)[C@@H](Cc2ccccc2)NC(=O)[C@H](CCN)NC(=O)[C@@H](NC(=O)CNC(=O)[C@@H](NC(=O)[C@H](N)CSSCc2cccc(Cl)c2)[C@@H](C)O)CCNC(=O)[C@H]([C@@H](C)O)NC(=O)[C@H](CCN)NC(=O)[C@H](CCN)NC1=O (H-[dC](S(3-Cl-benzyl))TG[Dab][Dab][dF]L[Dab][Dab]T; lactam 4-C)	7.4	–
0.5 (≈ 0.414 µM)	2 (≈ 1.65 µM)	0.5 (≈ 0.414 µM)	4 (≈ 3.31 µM)	–	–	–	–	CC(C)C[C@@H]1NC(=O)[C@@H](Cc2ccccc2)NC(=O)[C@H](CCN)NC(=O)[C@@H](NC(=O)[C@H](CN)NC(=O)[C@@H](NC(=O)[C@H](N)CSSCc2cccc(Cl)c2)[C@@H](C)O)CCNC(=O)[C@H]([C@@H](C)O)NC(=O)[C@H](CCN)NC(=O)[C@H](CCN)NC1=O (H-[dC](S(3-Cl-benzyl))T[Dap][Dab][Dab][dF]L[Dab][Dab]T; lactam 4-C)	4.8	–
0.5 (≈ 0.409 µM)	2 (≈ 1.64 µM)	1 (≈ 0.818 µM)	2 (≈ 1.64 µM)	–	–	–	–	CC(C)C[C@@H]1NC(=O)[C@@H](Cc2ccccc2)NC(=O)[C@H](CCN)NC(=O)[C@@H](NC(=O)[C@@H](CCN)NC(=O)[C@@H](NC(=O)[C@H](N)CSSCc2cccc(Cl)c2)[C@@H](C)O)CCNC(=O)[C@H]([C@@H](C)O)NC(=O)[C@H](CCN)NC(=O)[C@H](CCN)NC1=O (H-[dC](S(3-Cl-benzyl))T[dDab][Dab][Dab][dF]L[Dab][Dab]T; lactam 4-C)	7.0	–
0.5 (≈ 0.414 µM)	2 (≈ 1.65 µM)	0.5 (≈ 0.414 µM)	1 (≈ 0.827 µM)	–	–	–	–	CC(C)C[C@@H]1NC(=O)[C@@H](Cc2ccccc2)NC(=O)[C@H](CCN)NC(=O)[C@@H](NC(=O)[C@@H](CN)NC(=O)[C@@H](NC(=O)[C@H](N)CSSCc2cccc(Cl)c2)[C@@H](C)O)CCNC(=O)[C@H]([C@@H](C)O)NC(=O)[C@H](CCN)NC(=O)[C@H](CCN)NC1=O (H-[dC](S(3-Cl-benzyl))T[dDap][Dab][Dab][dF]L[Dab][Dab]T; lactam 4-C)	5.7	–
0.5 (≈ 0.413 µM)	2 (≈ 1.65 µM)	1 (≈ 0.827 µM)	4 (≈ 3.31 µM)	–	–	–	–	CC(C)C[C@@H]1NC(=O)[C@@H](Cc2ccccc2)NC(=O)[C@H](CCN)NC(=O)[C@@H](NC(=O)[C@@H](CO)NC(=O)[C@@H](NC(=O)[C@H](N)CSSCc2cccc(Cl)c2)[C@@H](C)O)CCNC(=O)[C@H]([C@@H](C)O)NC(=O)[C@H](CCN)NC(=O)[C@H](CCN)NC1=O (H-[dC](S(3-Cl-benzyl))T[dS][Dab][Dab][dF]L[Dab][Dab]T; lactam 4-C)	6.7	–
0.5 (≈ 0.444 µM)	2 (≈ 1.78 µM)	0.5 (≈ 0.444 µM)	4 (≈ 3.55 µM)	–	–	–	–	CC(C)CCSSC[C@@H](N)C(=O)N[C@H](C(=O)NCC(=O)N[C@H]1CCNC(=O)[C@H]([C@@H](C)O)NC(=O)[C@H](CCN)NC(=O)[C@H](CCN)NC(=O)[C@H](CC(C)C)NC(=O)[C@@H](Cc2ccccc2)NC(=O)[C@H](CCN)NC1=O)[C@@H](C)O (H-[dC](S(3-Methylbutyl))TG[Dab][Dab][dF]L[Dab][Dab]T; lactam 4-C)	26.8	–
0.25 (≈ 0.217 µM)	1 (≈ 0.866 µM)	0.25 (≈ 0.217 µM)	1 (≈ 0.866 µM)	–	–	–	–	CC(C)CCSSC[C@@H](N)C(=O)N[C@H](C(=O)N[C@@H](CN)C(=O)N[C@H]1CCNC(=O)[C@H]([C@@H](C)O)NC(=O)[C@H](CCN)NC(=O)[C@H](CCN)NC(=O)[C@H](CC(C)C)NC(=O)[C@@H](Cc2ccccc2)NC(=O)[C@H](CCN)NC1=O)[C@@H](C)O (H-[dC](S(3-Methylbutyl))T[Dap][Dab][Dab][dF]L[Dab][Dab]T; lactam 4-C)	20.1	–
0.25 (≈ 0.214 µM)	2 (≈ 1.71 µM)	0.5 (≈ 0.428 µM)	1 (≈ 0.856 µM)	–	–	–	–	CC(C)CCSSC[C@@H](N)C(=O)N[C@H](C(=O)N[C@H](CCN)C(=O)N[C@H]1CCNC(=O)[C@H]([C@@H](C)O)NC(=O)[C@H](CCN)NC(=O)[C@H](CCN)NC(=O)[C@H](CC(C)C)NC(=O)[C@@H](Cc2ccccc2)NC(=O)[C@H](CCN)NC1=O)[C@@H](C)O (H-[dC](S(3-Methylbutyl))T[dDab][Dab][Dab][dF]L[Dab][Dab]T; lactam 4-C)	7.1	–
0.25 (≈ 0.217 µM)	2 (≈ 1.73 µM)	0.5 (≈ 0.433 µM)	1 (≈ 0.866 µM)	–	–	–	–	CC(C)CCSSC[C@@H](N)C(=O)N[C@H](C(=O)N[C@H](CN)C(=O)N[C@H]1CCNC(=O)[C@H]([C@@H](C)O)NC(=O)[C@H](CCN)NC(=O)[C@H](CCN)NC(=O)[C@H](CC(C)C)NC(=O)[C@@H](Cc2ccccc2)NC(=O)[C@H](CCN)NC1=O)[C@@H](C)O (H-[dC](S(3-Methylbutyl))T[dDap][Dab][Dab][dF]L[Dab][Dab]T; lactam 4-C)	9.7	–
0.25 (≈ 0.216 µM)	2 (≈ 1.73 µM)	0.5 (≈ 0.433 µM)	4 (≈ 3.46 µM)	–	–	–	–	CC(C)CCSSC[C@@H](N)C(=O)N[C@H](C(=O)N[C@H](CO)C(=O)N[C@H]1CCNC(=O)[C@H]([C@@H](C)O)NC(=O)[C@H](CCN)NC(=O)[C@H](CCN)NC(=O)[C@H](CC(C)C)NC(=O)[C@@H](Cc2ccccc2)NC(=O)[C@H](CCN)NC1=O)[C@@H](C)O (H-[dC](S(3-Methylbutyl))T[dS][Dab][Dab][dF]L[Dab][Dab]T; lactam 4-C)	21.2	–
1 (≈ 0.856 µM)	1 (≈ 0.856 µM)	0.5 (≈ 0.428 µM)	1 (≈ 0.856 µM)	–	–	–	–	CC(C)CCSSC[C@@H](N)C(=O)N[C@H](C(=O)N[C@@H](CCN)C(=O)N[C@H]1CCNC(=O)[C@H]([C@@H](C)O)NC(=O)[C@H](CCN)NC(=O)[C@H](CCN)NC(=O)[C@H](CC(C)C)NC(=O)[C@@H](Cc2ccccc2)NC(=O)[C@H](CCN)NC1=O)[C@@H](C)O [drawing 95] (H-[dC](S(3-Methylbutyl))T[Dab][Dab][Dab][dF]L[Dab][Dab]T; lactam 4-C)	4.7	–
0.5 (≈ 0.428 µM)	1 (≈ 0.856 µM)	0.5 (≈ 0.428 µM)	1 (≈ 0.856 µM)	–	–	–	–	CC(C)CCSSC[C@@H](N)C(=O)N[C@H](C(=O)N[C@@H](CCN)C(=O)N[C@H]1CCNC(=O)[C@H]([C@@H](C)O)NC(=O)[C@H](CCN)NC(=O)[C@H](CCN)NC(=O)[C@H](CC(C)C)NC(=O)[C@@H](Cc2ccccc2)NC(=O)[C@H](CCN)NC1=O)[C@@H](C)O [drawing 140] (H-[dC](S(3-Methylbutyl))T[Dab][Dab][Dab][dF]L[Dab][Dab]T; lactam 4-C)	9.8	–
–	–	–	–	0.25	1	0.25	1	Polymyxin B [reference compound]	–	1
